Assay results as given in US20260262643A1, “HERBICIDAL BENZOXAZINES” (FMC CORPORATION, priority 2022, published 2026).

Legend:
blackgrass [1] = assay: Test A preemergence; type: in vivo, Alopecurus myosuroides
Procedure, shortened: (§1)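 Loam/sand soil; pre-em directed soil spray at planting, post-em spray at 1–2 leaf (2–10 cm). Compound in non-phytotoxic solvent + surfactant. Greenhouse 10 d; visual injury vs untreated, 0 = no effect, 100 = complete control.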

oat, wild [2] = assay: Test A preemergence; type: in vivo, Avena fatua
Procedure, shortened: as §1

ryegrass, Italian [3] = assay: Test A preemergence; type: in vivo, Lolium multiflorum
Procedure, shortened: as §1

goosegrass [4] = assay: Test A preemergence; type: in vivo, Eleusine indica
Procedure, shortened: as §1

galium = assay: Test A postemergence; type: in vivo, Galium aparine; conditions: postemergence, 10 days; for Plant response rating, Galium: visual injury, 0 to 100 scale (0 no effect, 100 complete control)
Procedure, shortened: as §1

horseweed = assay: Test A postemergence; type: in vivo, Erigeron canadensis; conditions: postemergence, 10 days; for Plant response rating, Horseweed: visual injury, 0 to 100 scale (0 no effect, 100 complete control)
Procedure, shortened: as §1

soybean [5] = assay: Test A preemergence; type: in vivo, Glycine max
Procedure, shortened: as §1

blackgrass [6] = assay: Test A postemergence; type: in vivo, Alopecurus myosuroides
Procedure, shortened: as §1

kochia [7] = assay: Test A postemergence; type: in vivo, Bassia scoparia; conditions: postemergence, 10 days; for Plant response rating, Kochia: visual injury, 0 to 100 scale (0 no effect, 100 complete control)
Procedure, shortened: as §1

sedge, umbrella = assay: Test B flooded paddy test; type: in vivo, Cyperus difformis; conditions: 250 g ai/ha, Flood, 13 days, 0 to 100 scale (0 no effect, 100 complete control)
Procedure, shortened: (§2)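 Compound is introduced into paddy water covering soil by 3 cm, treating plants that have reached two leaves. Pots are kept flooded at that depth under greenhouse conditions. Assessment at 13 days gives a 0–100 visual control score.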

ragweed [8] = assay: Test A postemergence; type: in vivo, Ambrosia artemisiifolia; conditions: postemergence, 10 days; for Plant response rating, Ragweed: 500 g ai/ha, visual injury, 0 to 100 scale (0 no effect, 100 complete control)
Procedure, shortened: as §1

ducksalad = assay: Test B flooded paddy test; type: in vivo, Heteranthera limosa; conditions: 250 g ai/ha, Flood, 13 days, 0 to 100 scale (0 no effect, 100 complete control)
Procedure, shortened: as §2

kochia [9] = assay: Test A preemergence; type: in vivo, Bassia scoparia
Procedure, shortened: as §1

pigweed, palmer [10] = assay: Test A preemergence; type: in vivo, Amaranthus palmeri
Procedure, shortened: as §1

corn [11] = assay: Test A preemergence; type: in vivo, Zea mays
Procedure, shortened: as §1

ryegrass, Italian [12] = assay: Test A postemergence; type: in vivo, Lolium multiflorum; conditions: postemergence, 10 days; for Plant response rating, Ryegrass, Italian: 500 g ai/ha, visual injury, 0 to 100 scale (0 no effect, 100 complete control)
Procedure, shortened: as §1

wheat [13] = assay: Test A preemergence; type: in vivo, Triticum aestivum
Procedure, shortened: as §1

corn [14] = assay: Test A postemergence; type: in vivo, Zea mays; conditions: postemergence, 10 days; for Plant response rating, Corn: visual injury, 0 to 100 scale (0 no effect, 100 complete control)
Procedure, shortened: as §1

goosegrass [15] = assay: Test A postemergence; type: in vivo, Eleusine indica; conditions: postemergence, 10 days; for Plant response rating, Goosegrass: visual injury, 0 to 100 scale (0 no effect, 100 complete control)
Procedure, shortened: as §1

rice = assay: Test B flooded paddy test; type: in vivo, Oryza sativa; conditions: 250 g ai/ha, Flood, 13 days, 0 to 100 scale (0 no effect, 100 complete control)
Procedure, shortened: as §2

soybean [16] = assay: Test A postemergence; type: in vivo, Glycine max; conditions: postemergence, 10 days; for Plant response rating, Soybean: 500 g ai/ha, visual injury, 0 to 100 scale (0 no effect, 100 complete control)
Procedure, shortened: as §1

oat, wild [17] = assay: Test A postemergence; type: in vivo, Avena fatua; conditions: postemergence, 10 days; for Plant response rating, Oat, Wild: 500 g ai/ha, visual injury, 0 to 100 scale (0 no effect, 100 complete control)
Procedure, shortened: as §1

wheat [18] = assay: Test A postemergence; type: in vivo, Triticum aestivum; conditions: postemergence, 10 days; for Plant response rating, Wheat: 500 g ai/ha, visual injury, 0 to 100 scale (0 no effect, 100 complete control)
Procedure, shortened: as §1

foxtail, giant [19] = assay: Test A preemergence; type: in vivo, Setaria faberi
Procedure, shortened: as §1

barnyardgrass = assay: Test B flooded paddy test; type: in vivo, Echinochloa crus-galli; conditions: 250 g ai/ha, Flood, 13 days, 0 to 100 scale (0 no effect, 100 complete control)
Procedure, shortened: as §2

pigweed, palmer [20] = assay: Test A postemergence; type: in vivo, Amaranthus palmeri; conditions: postemergence, 10 days; for Plant response rating, Pigweed, Palmer: 500 g ai/ha, visual injury, 0 to 100 scale (0 no effect, 100 complete control)
Procedure, shortened: as §1

foxtail, giant [21] = assay: Test A postemergence; type: in vivo, Setaria faberi; conditions: postemergence, 10 days; for Plant response rating, Foxtail, Giant: visual injury, 0 to 100 scale (0 no effect, 100 complete control)
Procedure, shortened: as §1

ragweed [22] = assay: Test A preemergence; type: in vivo, Ambrosia artemisiifolia
Procedure, shortened: as §1

[23] = 125 g ai/ha, visual injury after 10 days, 0 to 100 scale, 0 is no effect, 100 is complete control
[24] = 500 g ai/ha, 0 to 100 scale (0 no effect, 100 complete control), 10 days
[25] = 125 g ai/ha, 0 to 100 scale, 0 no effect, 100 complete control

C[C@H]1CN(C(=O)c2cc(-n3cncn3)ccc2C(F)(F)F)c2cccc(Cl)c2O1 [Compound 70]
Plant response rating, Blackgrass (blackgrass [1]; [23]): 30 | Plant response rating, Blackgrass (blackgrass [1]; [24]): 80 | Plant response rating, Oat, Wild (oat, wild [2]; [23]): 0 | Plant response rating, Oat, Wild (oat, wild [2]; [24]): 70 | Plant response rating, Ryegrass, Italian (ryegrass, Italian [3]; [23]): 50 | Plant response rating, Ryegrass, Italian (ryegrass, Italian [3]; [24]): 90 | Plant response rating, Goosegrass (goosegrass [4]; [23]): 70 | Plant response rating, Goosegrass (goosegrass [4]; [24]): 100 | Plant response rating, Galium (galium; 125 g ai/ha): 50 | Plant response rating, Galium (galium; 500 g ai/ha): 80 | Plant response rating, Horseweed (horseweed; 125 g ai/ha): 0 | Plant response rating, Horseweed (horseweed; 500 g ai/ha): 0 | Plant response rating, Soybean (soybean [5]; [23]): 0 | Plant response rating, Soybean (soybean [5]; [24]): 0 | Plant response rating, Blackgrass (blackgrass [6]; 125 g ai/ha, postemergence, 10 days, visual injury, 0 to 100 scale (0 no effect, 100 complete control)): 30 | Plant response rating, Blackgrass (blackgrass [6]; 500 g ai/ha, Postemergence, 0 to 100 scale): 70 | Plant response rating, Kochia (kochia [7]; 125 g ai/ha): 10 | Plant response rating, Kochia (kochia [7]; 500 g ai/ha): 60 | Plant response rating, Sedge, Umbrella (sedge, umbrella): 0 | Plant response rating, Ragweed (ragweed [8]): 0 | Plant response rating, Ducksalad (ducksalad): 0 | Plant response rating, Kochia (kochia [9]; [23]): 0 | Plant response rating, Kochia (kochia [9]; [24]): 0 | Plant response rating, Pigweed, Palmer (pigweed, palmer [10]; [23]): 20 | Plant response rating, Pigweed, Palmer (pigweed, palmer [10]; [24]): 90 | Plant response rating, Corn (corn [11]; [23]): 10 | Plant response rating, Corn (corn [11]; [24]): 20 | Plant response rating, Ryegrass, Italian (ryegrass, Italian [12]): 30 | Plant response rating, Wheat (wheat [13]; [23]): 0 | Plant response rating, Wheat (wheat [13]; [24]): 10 | Plant response rating, Corn (corn [14]; 125 g ai/ha): 10 | Plant response rating, Corn (corn [14]; 500 g ai/ha): 10 | Plant response rating, Goosegrass (goosegrass [15]; 125 g ai/ha): 10 | Plant response rating, Goosegrass (goosegrass [15]; 500 g ai/ha): 10 | Plant response rating, Rice (rice): 0 | Plant response rating, Soybean (soybean [16]): 100 | Plant response rating, Oat, Wild (oat, wild [17]): 10 | Plant response rating, Wheat (wheat [18]): 20 | Plant response rating, Foxtail, Giant (foxtail, giant [19]; [23]): 20 | Plant response rating, Foxtail, Giant (foxtail, giant [19]; [24]): 100 | Plant response rating, Barnyardgrass (barnyardgrass): 0 | Plant response rating, Pigweed, Palmer (pigweed, palmer [20]): 70 | Plant response rating, Foxtail, Giant (foxtail, giant [21]; 125 g ai/ha): 10 | Plant response rating, Foxtail, Giant (foxtail, giant [21]; 500 g ai/ha): 30 | Plant response rating, Ragweed (ragweed [22]; [23]): 0 | Plant response rating, Ragweed (ragweed [22]; [24]): 0

CCc1ccc(-n2cnc(C(C)(C)C)n2)cc1C(=O)N1C[C@H](C)Oc2c(Cl)cccc21 [Compound 102]
Plant response rating, Blackgrass (blackgrass [1]; [23]): 30 | Plant response rating, Blackgrass (blackgrass [1]; [24]): 50 | Plant response rating, Oat, Wild (oat, wild [2]; [23]): 40 | Plant response rating, Oat, Wild (oat, wild [2]; [24]): 80 | Plant response rating, Ryegrass, Italian (ryegrass, Italian [3]; [23]): 80 | Plant response rating, Ryegrass, Italian (ryegrass, Italian [3]; [24]): 100 | Plant response rating, Goosegrass (goosegrass [4]; [23]): 100 | Plant response rating, Goosegrass (goosegrass [4]; [24]): 100 | Galium plant response rating (galium; [25]): 50 | Plant response rating, Galium (galium; 500 g ai/ha): 100 | Horseweed plant response rating (horseweed; [25]): 0 | Plant response rating, Horseweed (horseweed; 500 g ai/ha): 0 | Plant response rating, Soybean (soybean [5]; [23]): 50 | Plant response rating, Soybean (soybean [5]; [24]): 100 | Blackgrass plant response rating (blackgrass [6]; 125 g ai/ha, postemergence, 10 days, 0 to 100 scale, 0 no effect, 100 complete control): 0 | Plant response rating, Blackgrass (blackgrass [6]; 500 g ai/ha, postemergence, 10 days, visual injury, 0 to 100 scale (0 no effect, 100 complete control)): 60 | Kochia plant response rating (kochia [7]; [25]): 90 | Plant response rating, Kochia (kochia [7]; 500 g ai/ha): 90 | Plant response rating, Sedge, Umbrella (sedge, umbrella): 95 | Ragweed plant response rating (ragweed [8]; [25]): 20 | Plant response rating, Ragweed (ragweed [8]): 40 | Plant response rating, Ducksalad (ducksalad): 65 | Plant response rating, Kochia (kochia [9]; [23]): 80 | Plant response rating, Kochia (kochia [9]; [24]): 100 | Plant response rating, Pigweed, Palmer (pigweed, palmer [10]; [23]): 100 | Plant response rating, Pigweed, Palmer (pigweed, palmer [10]; [24]): 100 | Plant response rating, Corn (corn [11]; [23]): 10 | Plant response rating, Corn (corn [11]; [24]): 20 | Ryegrass, Italian plant response rating (ryegrass, Italian [12]; [25]): 50 | Plant response rating, Ryegrass, Italian (ryegrass, Italian [12]): 50 | Plant response rating, Wheat (wheat [13]; [23]): 0 | Plant response rating, Wheat (wheat [13]; [24]): 0 | Corn plant response rating (corn [14]; [25]): 20 | Plant response rating, Corn (corn [14]; 500 g ai/ha): 80 | Goosegrass plant response rating (goosegrass [15]; [25]): 80 | Plant response rating, Goosegrass (goosegrass [15]; 500 g ai/ha): 80 | Plant response rating, Rice (rice): 10 | Soybean plant response rating (soybean [16]; [25]): 100 | Plant response rating, Soybean (soybean [16]): 100 | Oat, Wild plant response rating (oat, wild [17]; [25]): 10 | Plant response rating, Oat, Wild (oat, wild [17]): 60 | Wheat plant response rating (wheat [18]; [25]): 10 | Plant response rating, Wheat (wheat [18]): 30 | Plant response rating, Foxtail, Giant (foxtail, giant [19]; [23]): 90 | Plant response rating, Foxtail, Giant (foxtail, giant [19]; [24]): 100 | Plant response rating, Barnyardgrass (barnyardgrass): 10 | Pigweed, Palmer plant response rating (pigweed, palmer [20]; [25]): 90 | Plant response rating, Pigweed, Palmer (pigweed, palmer [20]): 100 | Foxtail, Giant plant response rating (foxtail, giant [21]; [25]): 80 | Plant response rating, Foxtail, Giant (foxtail, giant [21]; 500 g ai/ha): 90 | Plant response rating, Ragweed (ragweed [22]; [23]): 0 | Plant response rating, Ragweed (ragweed [22]; [24]): 0
